According to patent US10638756B2, “Molecules having pesticidal utility, and intermediates, compositions, and processes, related thereto” (Dow AgroSciences LLC, priority 2017, dated 2020):

Experiments:
[1] = tested on: Cabbage Looper (Trichoplusia ni); test: Bioassay on Cabbage Looper (CL), 128-well diet tray assay; type: in vivo; details: 168 h, 50 μg/cm^2 on artificial diet, second instar larvae, five to seven days, read-out: CL % Control (or Mortality) rating
Experimental: (§1) Certain molecules disclosed in this document were tested against BAW and CL using procedures described in the following examples. In the reporting of the results, the “BAW & CL Rating Table” was used (See Table Section).
Bioassays on CL were conducted using a 128-well diet tray assay. One to five second instar CL larvae were placed in each well (3 mL) of the diet tray that had been previously filled with 1 mL of artificial diet to which 50 μg/cm^2 of the test molecule (dissolved in 50 μL of 90:10 acetone-water mixture) had been applied (to each of eight wells) and then allowed to dry. Trays were covered with a clear self-adhesive cover, vented to allow gas exchange, and held at 25° C., 14:10 light-dark for five to seven days. Percent mortality was recorded for the larvae in each well; activity in the eight wells was then averaged. The results are indicated in the table entitled “Table ABC: Biological Results” (See Table Section).

[2] = tested on: Beet Armyworm (Spodoptera exigua); test: Bioassay on Beet Armyworm (BAW), 128-well diet tray assay; type: in vivo; details: for mortality at 50 µg/cm2: Spodoptera exigua, 168 h, 50 μg/cm^2 on artificial diet, second instar larvae, five to seven days, read-out: BAW % Control (or Mortality) rating
Experimental: as §1
Bioassays on BAW were conducted using a 128-well diet tray assay. […] Trays were covered with a clear self-adhesive cover, vented to allow gas exchange, and held at 25° C., 14:10 light-dark for five to seven days. Percent mortality was recorded for the larvae in each well; activity in the eight wells was then averaged. The results are indicated in the table entitled “Table ABC: Biological Results” (See Table Section).

Q: What does the source list for Cc1cc(/C(F)=C/C(c2cc(Cl)c(Cl)c(Cl)c2)C(F)(F)F)ccc1C(=O)NNc1ncccn1 (centres unmarked) [F37, (Z)-2-Methyl-N′-(pyrimidin-2-yl)-4-(1,4,4,4-tetrafluoro-3-(3,4,5-trichlorophenyl)but-1-en-1-yl)benzohydrazide]?
A: mortality at 50 µg/cm2 [1]: 50 to 100%; BAW (Table CD-1) ([2]; 0.05 μg/cm^2): 0; BAW (Table CD-1) ([2]; 5.0 μg/cm^2): 100; BAW (Table CD-1) ([2]; 50 μg/cm^2): 100; mortality at 50 µg/cm2 [2]: 50 to 100%

Q: For O=C(NNc1cncnc1)c1ccc(/C(F)=C/C(c2cc(Cl)c(Cl)c(Cl)c2)C(F)(F)F)cc1C(F)(F)F (centres unmarked) [F31, (Z)—N′-(Pyrimidin-5-yl)-4-(1,4,4,4-tetrafluoro-3-(3,4,5-trichlorophenyl)but-1-en-1-yl)-2-(trifluoromethyl)benzohydrazide], which mortality at 50 µg/cm2 [1] is on record?
A: Its mortality at 50 µg/cm2 is 50 to 100%.

Q: And the mortality at 50 µg/cm2 [2]?
A: The mortality at 50 µg/cm2 was 50 to 100%.

Q: Which results are given for N#CCN(NC(=O)c1ccc(/C(F)=C/C(c2cc(Cl)c(Cl)c(Cl)c2)C(F)(F)F)cc1C(F)(F)F)c1ncccn1 (centres unmarked) [F189, (Z)—N′-(cyanomethyl)-N′-(pyrimidin-2-yl)-4-(1,4,4,4-tetrafluoro-3-(3,4,5-trichlorophenyl)but-1-en-1-yl)-2-(trifluoromethyl)benzohydrazide]?
A: mortality at 50 µg/cm2 [1]: 50 to 100%; mortality at 50 µg/cm2 [2]: 50 to 100%

Q: Which results are given for O=C(NNCC(F)(F)F)c1ccc(/C(F)=C/C(c2cc(Cl)c(Cl)c(Cl)c2)C(F)(F)F)cc1C(F)(F)F (centres unmarked) [F49, (Z)-4-(1,4,4,4-tetrafluoro-3-(3,4,5-trichlorophenyl)but-1-en-1-yl)-N′-(2,2,2-trifluoroethyl)-2-(trifluoromethyl)benzohydrazide]?
A: mortality at 50 µg/cm2 [1]: 50 to 100%; mortality at 50 µg/cm2 [2]: 50 to 100%

Q: Which mortality at 50 µg/cm2 [1] does the source give for O=C(NNC1=NCCCN1)c1ccc(/C(F)=C/C(c2cc(Cl)c(Cl)c(Cl)c2)C(F)(F)F)cc1C(F)(F)F (centres unmarked) [F27, (Z)-4-(1,4,4,4-Tetrafluoro-3-(3,4,5-trichlorophenyl)but-1-en-1-yl)-N′-(1,4,5,6-tetrahydropyrimidin-2-yl)-2-(trifluoromethyl)benzohydrazide] here?
A: The mortality at 50 µg/cm2 was 50 to 100%.

Q: What about the mortality at 50 µg/cm2 [2] of the same molecule?
A: The mortality at 50 µg/cm2 was 50 to 100%.

Q: How did the mortality at 50 µg/cm2 [1] turn out when CN(NC(=O)c1ccc(/C(F)=C/C(c2cc(Cl)c(Cl)c(Cl)c2)C(F)(F)F)cc1C(F)(F)F)c1ncc(N)cn1 (centres unmarked) [F166, (Z)—N′-(5-Aminopyrimidin-2-yl)-N′-methyl-4-(1,4,4,4-tetrafluoro-3-(3,4,5-trichlorophenyl)but-1-en-1-yl)-2-(trifluoromethyl)benzohydrazide] was run?
A: Its mortality at 50 µg/cm2 is 50 to 100%.

Q: What about the mortality at 50 µg/cm2 [2] of the same molecule?
A: Its mortality at 50 µg/cm2 is 50 to 100%.

Q: What does the source list for O=C(NNc1ncccn1)c1ccc(/C(F)=C/C(c2ccc(Br)c(Br)c2)C(F)(F)F)cc1C(F)(F)F (centres unmarked) [F177, (Z)-4-(3-(3,4-Dibromophenyl)-1,4,4,4-tetrafluorobut-1-en-1-yl)-N′-(pyrimidin-2-yl)-2-(trifluoromethyl)benzohydrazide]?
A: mortality at 50 µg/cm2 [1]: 50 to 100%; mortality at 50 µg/cm2 [2]: 50 to 100%

Q: How did the mortality at 50 µg/cm2 [1] turn out when O=C(NNc1cncc(Cl)n1)c1ccc(/C(F)=C/C(c2cc(Cl)c(Cl)c(Cl)c2)C(F)(F)F)cc1C(F)(F)F (centres unmarked) [F104, (Z)—N′-(6-Chloropyrazin-2-yl)-4-(1,4,4,4-tetrafluoro-3-(3,4,5-trichlorophenyl)but-1-en-1-yl)-2-(trifluoromethyl)benzohydrazide] was run?
A: Its mortality at 50 µg/cm2 is 50 to 100%.

Q: What about the mortality at 50 µg/cm2 [2] of the same molecule?
A: The mortality at 50 µg/cm2 was 50 to 100%.

Q: For O=C(NNC1CCCCC1)c1ccc(/C(F)=C/C(c2cc(Cl)c(Cl)c(Cl)c2)C(F)(F)F)cc1C(F)(F)F (centres unmarked) [F137, (Z)—N′-Cyclohexyl-4-(1,4,4,4-tetrafluoro-3-(3,4,5-trichlorophenyl)but-1-en-1-yl)-2-(trifluoromethyl)benzohydrazide], which mortality at 50 µg/cm2 [1] is on record?
A: The mortality at 50 µg/cm2 was 50 to 100%.

Q: What about the mortality at 50 µg/cm2 [2] of the same molecule?
A: The mortality at 50 µg/cm2 was 50 to 100%.

Q: With O=C(NNc1ncc(F)cn1)c1ccc(/C(F)=C/C(c2cc(Cl)c(Cl)c(Cl)c2)C(F)(F)F)cc1C(F)(F)F (centres unmarked) [F114, (Z)—N′-(5-Fluoropyrimidin-2-yl)-4-(1,4,4,4-tetrafluoro-3-(3,4,5-trichlorophenyl)but-1-en-1-yl)-2-(trifluoromethyl)benzohydrazide] as the molecule, how does the mortality at 50 µg/cm2 [1] read?
A: The mortality at 50 µg/cm2 was 50 to 100%.

Q: And the mortality at 50 µg/cm2 [2]?
A: The mortality at 50 µg/cm2 was 50 to 100%.

Q: Which mortality at 50 µg/cm2 [1] does the source give for O=C(NNc1ncccn1)c1ccc(/C(F)=C/C(c2ccc(F)c(Cl)c2)C(F)(F)F)cc1C(F)(F)F (centres unmarked) [F182, (Z)-4-(3-(3-Chloro-4-fluorophenyl)-1,4,4,4-tetrafluorobut-1-en-1-yl)-N′-(pyrimidin-2-yl)-2-(trifluoromethyl)benzohydrazide] here?
A: Its mortality at 50 µg/cm2 is 50 to 100%.

Q: And the mortality at 50 µg/cm2 [2]?
A: Its mortality at 50 µg/cm2 is 50 to 100%.

Q: How did the mortality at 50 µg/cm2 [1] turn out when O=C(NNc1ncccn1)c1ccc(/C(F)=C/C(c2ccc(Cl)c(Br)c2)C(F)(F)F)cc1C(F)(F)F (centres unmarked) [F178, (Z)-4-(3-(3-Bromo-4-chlorophenyl)-1,4,4,4-tetrafluorobut-1-en-1-yl)-N′-(pyrimidin-2-yl)-2-(trifluoromethyl)benzohydrazide] was run?
A: Its mortality at 50 µg/cm2 is 50 to 100%.

Q: And the mortality at 50 µg/cm2 [2]?
A: The mortality at 50 µg/cm2 was 50 to 100%.

Q: For CN(C)CCNNC(=O)c1ccc(/C(F)=C/C(c2cc(Cl)c(Cl)c(Cl)c2)C(F)(F)F)cc1C(F)(F)F (centres unmarked) [F143, (Z)—N′-(2-(Dimethylamino)ethyl)-4-(1,4,4,4-tetrafluoro-3-(3,4,5-trichlorophenyl)but-1-en-1-yl)-2-(trifluoromethyl)benzohydrazide], which mortality at 50 µg/cm2 [1] is on record?
A: Its mortality at 50 µg/cm2 is 0 to 50%.

Q: What about the mortality at 50 µg/cm2 [2] of the same molecule?
A: Its mortality at 50 µg/cm2 is 50 to 100%.

Q: How did the mortality at 50 µg/cm2 [1] turn out when O=C(NNc1ncccn1)c1ccc(/C(F)=C/C(c2cc(F)c(Cl)c(F)c2)C(F)(F)F)cc1C(F)(F)F (centres unmarked) [F188, (Z)-4-(3-(4-Chloro-3,5-difluorophenyl)-1,4,4,4-tetrafluorobut-1-en-1-yl)-N′-(pyrimidin-2-yl)-2-(trifluoromethyl)benzohydrazide] was run?
A: The mortality at 50 µg/cm2 was 50 to 100%.

Q: What about the mortality at 50 µg/cm2 [2] of the same molecule?
A: The mortality at 50 µg/cm2 was 50 to 100%.

Q: For O=C(NNc1ncccn1)c1ccc(/C(F)=C/C(c2ccc(C(F)(F)F)c(Cl)c2)C(F)(F)F)cc1C(F)(F)F (centres unmarked) [F167, (Z)-4-(3-(3-Chloro-4-(trifluoromethyl)phenyl)-1,4,4,4-tetrafluorobut-1-en-1-yl)-N′-(pyrimidin-2-yl)-2-(trifluoromethyl)benzohydrazide], which mortality at 50 µg/cm2 [1] is on record?
A: Its mortality at 50 µg/cm2 is 50 to 100%.

Q: And the mortality at 50 µg/cm2 [2]?
A: Its mortality at 50 µg/cm2 is 50 to 100%.

Q: For O=C(NNCC1CC1)c1ccc(/C(F)=C/C(c2cc(Cl)c(Cl)c(Cl)c2)C(F)(F)F)cc1C(F)(F)F (centres unmarked) [F162, (Z)—N′-(Cyclopropylmethyl)-4-(1,4,4,4-tetrafluoro-3-(3,4,5-trichlorophenyl)but-1-en-1-yl)-2-(trifluoromethyl)benzohydrazide], which mortality at 50 µg/cm2 [1] is on record?
A: Its mortality at 50 µg/cm2 is 50 to 100%.

Q: And the mortality at 50 µg/cm2 [2]?
A: The mortality at 50 µg/cm2 was 50 to 100%.

Q: Which mortality at 50 µg/cm2 [1] does the source give for Nc1ccccc1NNC(=O)c1ccc(/C(F)=C/C(c2cc(Cl)c(Cl)c(Cl)c2)C(F)(F)F)cc1C(F)(F)F (centres unmarked) [F156, (Z)—N′-(2-aminophenyl)-4-(1,4,4,4-tetrafluoro-3-(3,4,5-trichlorophenyl)but-1-en-1-yl)-2-(trifluoromethyl)benzohydrazide] here?
A: The mortality at 50 µg/cm2 was 50 to 100%.

Q: What about the mortality at 50 µg/cm2 [2] of the same molecule?
A: Its mortality at 50 µg/cm2 is 50 to 100%.

Q: For CN(NC(=O)c1ccc(/C(F)=C/[C@@H](c2cc(Cl)c(Cl)c(Cl)c2)C(F)(F)F)cc1C(F)(F)F)c1ncccn1 (single isomer, unassigned) [F17], which mortality at 50 µg/cm2 [1] is on record?
A: The mortality at 50 µg/cm2 was 50 to 100%.

Q: What about the mortality at 50 µg/cm2 [2] of the same molecule?
A: Its mortality at 50 µg/cm2 is 50 to 100%.

Q: What does the source list for CN(NC(=O)c1ccc(/C(F)=C/C(c2cc(Cl)c(Cl)c(Cl)c2)C(F)(F)F)cc1C(F)(F)F)c1nccc(C(F)(F)F)n1 (centres unmarked) [F91, (Z)—N′-methyl-4-(1,4,4,4-tetrafluoro-3-(3,4,5-trichlorophenyl)but-1-en-1-yl)-2-(trifluoromethyl)-N′-(4-(trifluoromethyl)pyrimidin-2-yl)benzohydrazide]?
A: mortality at 50 µg/cm2 [1]: 50 to 100%; mortality at 50 µg/cm2 [2]: 50 to 100%
